Reference: patent US20130324522A1, “INSECT ODORANT RECEPTOR ANTAGONISTS” (THE ROCKEFELLER UNIVERSITY, priority 2010, published 2013)
Read-outs that look alike come from different tables or passages of the source.

What was measured:
[1] = target: T1, Or47a/Or83b (Drosophila melanogaster, UniProt P81921+Q9VNB5); assay: Ca2+-imaging of stable Flip-In T-Rex cell line Or47a/Or83b; format: cell-based; details: for inhibition at 4 µM: read-out: Percent Inhibition OR47a OR83b
T1 construct: Full-length cDNAs for mosquito (Anopheles gambiae) odorant receptor (OR1, OR2, OR7, OR8, OR28), and fly (Drosophila melanogaster) odorant receptor (Or47a, Or83b); expressed in transfected cells
T1 sequence (P81921 1-385): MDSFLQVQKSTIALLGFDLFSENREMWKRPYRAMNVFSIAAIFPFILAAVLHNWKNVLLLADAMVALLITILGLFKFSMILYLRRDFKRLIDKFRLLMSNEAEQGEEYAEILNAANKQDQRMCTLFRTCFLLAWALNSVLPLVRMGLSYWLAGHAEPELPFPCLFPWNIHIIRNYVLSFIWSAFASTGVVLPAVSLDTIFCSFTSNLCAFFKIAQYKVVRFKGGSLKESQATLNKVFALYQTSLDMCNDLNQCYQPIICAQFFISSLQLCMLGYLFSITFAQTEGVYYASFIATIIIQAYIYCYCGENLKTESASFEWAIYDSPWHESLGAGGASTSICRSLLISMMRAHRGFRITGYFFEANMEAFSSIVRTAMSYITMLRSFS
T1 sequence (Q9VNB5 1-486): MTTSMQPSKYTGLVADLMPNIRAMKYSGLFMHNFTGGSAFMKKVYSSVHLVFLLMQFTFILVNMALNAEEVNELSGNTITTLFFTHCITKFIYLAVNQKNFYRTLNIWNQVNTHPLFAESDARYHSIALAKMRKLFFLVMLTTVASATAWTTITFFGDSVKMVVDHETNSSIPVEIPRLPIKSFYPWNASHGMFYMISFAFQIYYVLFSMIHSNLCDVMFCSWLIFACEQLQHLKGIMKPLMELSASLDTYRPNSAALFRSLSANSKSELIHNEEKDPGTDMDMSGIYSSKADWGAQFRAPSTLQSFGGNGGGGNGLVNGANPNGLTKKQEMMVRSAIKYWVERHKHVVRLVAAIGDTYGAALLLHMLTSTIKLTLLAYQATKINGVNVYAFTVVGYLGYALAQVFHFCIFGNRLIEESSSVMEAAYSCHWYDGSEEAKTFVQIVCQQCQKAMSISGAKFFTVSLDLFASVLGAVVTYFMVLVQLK
Method: (§1) Full-length cDNAs for mosquito (Anopheles gambiae) odorant receptor (OR1, OR2, OR7, OR8, OR28), and fly (Drosophila melanogaster) odorant receptor (Or47a, Or83b), mouse TRP channel (TRPM8), and mouse serotonin receptor (5HT3) were obtained and subcloned into mammalian expression vectors. The following mammalian expression vectors were used:
(§2) Stable cell lines Or47a/Or83b and 5HT3 were generated from Flip-In T-Rex cells. Flip-In T-Rex-based cell lines were cultured in DMEM supplemented with these additional antibiotics: 6 μg/mL blasticidin and 100 μg/mL hygromycin.
(§3) Cells were trypsinized and split into 35 mm dishes 1 day before transfection. Confluent cells (60-70%) in 35 mm dishes were co-transfected with 1 μg of Or47a/Or83b plasmid in pcDNA5/FRT/TO/IRES plus the pOG44 plasmid or 1 μg of 5HT3 plasmid in pcDNA5/FRT/TO plus the pOG44 plasmid using lipofectamine 2000. Co-transfection of pOG44 and pcDNA5/FRT/TO/IRES or pcDNA5/FRT/TO allows expression of Flp recombinase and integration of the pcDNA5 plasmid into the genome via the FRT site. After one day of incubation, the transfected cells were transferred into 10 cm dishes with DMEM containing antibiotics: 20 μg/mL of hygromycin and 6 μg/mL of blasticidin. The concentration of Hygromycin was increased to 100 μg/mL when the population of cells became 30-40% confluent. The cells were cultured by changing medium every two days until cell clumps appeared. The clumps were picked and transferred into 96 well plates with DMEM containing 100 μg/mL of Hygromycin and 6 μg/mL of blasticidin. The cells were grown and transferred to 24 well plates, and ligand-evoked calcium increases were tested using the Hamamatsu FDSS6000 real time fluorescence plate reader.
(§4) Stable cell lines were cultured in 10 cm dishes, and confluent cells (70-80%) were trypsinized. 10,000 cells/20 μL were transferred into each well of 384-well plates coated with poly-D-lysine, and cultured for 2 days. For Flip-In T-Rex cells (cell lines expressing Or47a/Or83b and 5HT3), 5 μL of tetracycline (5 μg/mL) were added 1 day before the assay. 20 μL of Ca-4 dye was loaded into each well for 1.5 hr at room temperature in the dark, and the dye-loaded plates were subjected to Ca^2+-imaging using a Hamamatsu FDSS6000 real time fluorescence plate reader. Odorant solutions (9× final concentration) were prepared by dissolving 1M stock solutions into Hank's Buffered Salt Solution (HBSS), and 30 μL of odor solution was transferred to each well in 384-well plates.
(§5) Compounds ([…] in DMSO) were stored in 384-well plates, and last two columns (32 wells total) contained only DMSO. 200 nL of small compounds were transferred into the odorant plates before the assay using the Perkin-Elmer Janus workstation. The odorant plates were spun down to remove air bubbles, and placed on the FDSS6000 plate loader, and 5 μL of odorant solution was applied to the cell plate on the FDSS6000. Ca^2+ increase was monitored with fluorescence at 525 nm by excitation at 485 nm.

[2] = target: T2, serotonin receptor (5HT3) (Mus musculus, UniProt P23979); assay: Ca2+-imaging of stable Flip-In T-Rex cell line 5HT3; format: cell-based; details: for inhibition at 4 µM: read-out: Percent Inhibition 5HT3
T2 construct: Full-length cDNAs for mosquito (Anopheles gambiae) odorant receptor; expressed in transfected cells
T2 sequence (P23979 24-489): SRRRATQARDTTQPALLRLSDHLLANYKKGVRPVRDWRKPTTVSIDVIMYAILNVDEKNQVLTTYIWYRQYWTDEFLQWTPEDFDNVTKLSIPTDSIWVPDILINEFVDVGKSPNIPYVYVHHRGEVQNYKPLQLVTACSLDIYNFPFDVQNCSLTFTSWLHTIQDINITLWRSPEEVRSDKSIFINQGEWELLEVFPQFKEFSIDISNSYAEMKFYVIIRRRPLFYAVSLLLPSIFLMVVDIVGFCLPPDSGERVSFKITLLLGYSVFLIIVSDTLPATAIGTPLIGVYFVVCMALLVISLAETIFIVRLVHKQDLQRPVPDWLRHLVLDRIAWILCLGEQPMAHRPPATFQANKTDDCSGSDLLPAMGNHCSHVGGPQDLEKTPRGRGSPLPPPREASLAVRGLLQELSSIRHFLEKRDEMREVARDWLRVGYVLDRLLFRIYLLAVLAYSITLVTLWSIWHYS
Method: as §1, §2, §3, §4, §5

[3] = ligand pentyl acetate 30 μM, read-out: IC50 OR47a OR83b
[4] = ligand serotonin 10 μM, read-out: IC50 5HT3

Compound	inhibition at 4 µM ([1]; compound applied at 4 μM) [%]	inhibition at 4 µM ([2]; compound applied at 4 μM) [%]	IC50 ([1]; Table B, read-out: IC50 OR47a) [nM]	also measured
COCCN(Cc1nccn1Cc1c(F)cccc1Cl)C(=O)CCc1ccccc1 [RU-0058550]	26 to 50	< 25	–	–
c1ccc(CNc2nc(NCc3ccco3)nc(N3CCOCC3)n2)cc1 [RU-0020050]	51 to 74	26 to 50	< 100	–
CN(Cc1nccn1Cc1c(F)cccc1Cl)C(=O)C1CCCC1 [RU-I5]	–	–	–	IC50 [1, 3]: 20000 to 50000 nM; IC50 [2, 4]: 2000 to 20000 nM
CC(C)Nc1nc(Cl)nc(N(C)C(C)C)n1 [RU-T7]	–	–	–	IC50 [1]: > 20000 nM; IC50 [2]: > 20000 nM
Cc1cc(C)c(Cn2ccnc2CN(C(=O)c2ccccc2F)C(C)C)c(C)c1 [RU-0048001]	51 to 74	< 25	> 1000	–
O=C(c1c(F)c(F)cc(F)c1F)N1CCOC(Cc2ccccc2)C1 (centres unmarked) [RU-0050393]	26 to 50	26 to 50	–	–
O=C(c1ccco1)N(Cc1ccco1)Cc1nccn1Cc1ccccc1F [RU-0047694]	26 to 50	26 to 50	–	–
O=C(c1cccnc1Cl)N1CCOC(COCc2c(Cl)cccc2Cl)C1 (centres unmarked) [RU-0050372]	26 to 50	< 25	–	–
O=C(NCCC(=O)N1CCOC(COCc2ccc(F)cc2Cl)C1)OCc1ccccc1 (centres unmarked) [RU-0050344]	26 to 50	< 25	–	–
COc1ccccc1CC(=O)N1CCOC(COc2ccc(C)cc2)C1 (centres unmarked) [RU-0050390]	26 to 50	< 25	–	–
COCCCN(Cc1c(-c2ccccc2)noc1N1CCC(C)CC1)C(=O)c1ccccc1F [RU-0036876]	51 to 74	26 to 50	> 1000	–
C=CCN(Cc1nccn1Cc1ccccc1F)C(=O)C1CCCC1 [RU-0058964]	51 to 74	51 to 74	> 1000	IC50 ([2]; Table B, read-out: IC50 5HT3): > 1000 nM
Cc1ccc(-c2nnc(SCCCC(=O)N3CCN(C(=O)c4cccc(F)c4)C(C)C3)n2-c2ccc(C)cc2)cc1 (centres unmarked) [RU-0071789]	26 to 50	26 to 50	–	–
CC(C)CN(Cc1nccn1Cc1c(F)cccc1Cl)C(=O)c1ccc(F)cc1 [RU-0048054]	26 to 50	< 25	–	–
CCN(CC)C(=O)Oc1ccc2c(ccn2Cc2ccc(Cl)cc2)c1NC(=O)C1CC1 [RU-0075475]	–	–	–	inhibition at 4 µM [1]: < 25%; inhibition at 4 µM [2]: < 25%
C=CCN(Cc1nccn1Cc1ccccc1C)C(=O)CC(C)C [RU-0058298]	51 to 74	26 to 50	> 1000	–
COc1ccc(-c2cc(-c3ccccc3)n(C(=O)CN3CCN(Cc4ccccc4)CC3)n2)cc1 [RU-0038795]	51 to 74	51 to 74	> 1000	IC50 ([2]; Table B, read-out: IC50 5HT3): > 1000 nM
CC(C)Nc1nc(Cl)nc(NCc2ccccc2)n1 [RU-T9]	–	–	–	IC50 [1]: > 20000 nM; IC50 [2]: > 50000 nM

Compound	inhibition at 4 µM ([1]; compound applied at 4 μM) [%]	inhibition at 4 µM ([2]; compound applied at 4 μM) [%]	IC50 ([1]; Table B, read-out: IC50 OR47a) [nM]	also measured
CCN(CC)C(=O)c1cccc(C)c1 [DEET, N,N-diethyl-m-toluamide, reference compound]	–	–	–	IC50 [1, 3]: > 50000 nM; IC50 [2, 4]: > 50000 nM
C=CCN(Cc1nccn1Cc1ccc(Cl)c(Cl)c1)C(=O)c1ccccc1F [RU-0047955]	26 to 50	< 25	–	–
O=C(c1ccco1)N(Cc1nccn1Cc1c(F)cccc1Cl)C1CC1 [RU-0048046]	26 to 50	< 25	–	–
CSc1nc(NC(C)C)nc(NC(C)C)n1 [RU-T2]	–	–	–	IC50 [1, 3]: > 20000 nM; IC50 [2, 4]: 2000 to 20000 nM
Cc1ccccc1C(=O)N[C@@H]1CCCCC1NC(=O)C1CCN(C(=O)C23CC4CC(CC(C4)C2)C3)CC1 (some centres unmarked) [RU-0045351]	26 to 50	< 25	–	–
CCNc1nc(Cl)nc(NC(C)C)n1 [RU-T5]	–	–	–	IC50 [1, 3]: > 20000 nM; IC50 [2, 4]: > 20000 nM
O=C(CCC1CCN(C(=O)c2cccc(-n3cccn3)c2)CC1)Nc1ccccc1 [RU-0032465]	51 to 74	< 25	> 1000	–
COCCNC(=O)c1ccc(CSc2nnc(-c3ccc(C)cc3)n2-c2ccccc2C)cc1 [RU-0053556]	26 to 50	< 25	–	–
CC(C)Nc1nc(NC(C)C)nc(C(F)(F)F)n1 [RU-T8]	–	–	–	IC50 [1]: > 20000 nM; IC50 [2]: > 20000 nM
CCN(CC)C(=O)Oc1ccc2c(ccn2Cc2cccc(C)c2)c1NC(=O)CCCCC(=O)OC [RU-0075445]	–	–	–	inhibition at 4 µM [1]: < 25%; inhibition at 4 µM [2]: < 25%
CCOC(=O)CCC(=O)N(CCc1ccccc1)CC(=O)Nc1cc(C(C)(C)C)nn1-c1ccccc1C [RU-0072462]	26 to 50	< 25	–	–
CCN(CC)c1onc(-c2ccccc2)c1CN(CC1CCCO1)C(=O)c1ccc2c(c1)OCO2 (centres unmarked) [RU-0036875]	51 to 74	51 to 74	> 1000	IC50 ([2]; Table B, read-out: IC50 5HT3): > 1000 nM
Cc1c(C(=O)NCc2ccco2)cnn1-c1ccccc1 [RU-0047765]	26 to 50	< 25	> 1000	–
CCN(C)c1onc(-c2ccccc2)c1CN(CCCOC)C(=O)c1ccco1 [RU-0051926]	26 to 50	51 to 74	–	IC50 ([2]; Table B, read-out: IC50 5HT3): 100 to 1000 nM
C=CCOc1cccc(C(=O)N2CCCC(C(=O)c3ccccc3OC)C2)c1 (centres unmarked) [RU-0029409]	51 to 74	< 25	–	–
O=C(c1ccco1)N(Cc1nccn1Cc1ccccc1Cl)CC1CC1 [RU-0047281]	> 75	> 75	> 1000	IC50 ([2]; Table B, read-out: IC50 5HT3): 100 to 1000 nM
CC(=O)OCC(=O)NCC1Cc2cc(Oc3ccccc3)ccc2O1 (centres unmarked) [RU-0079120]	51 to 74	26 to 50	< 100	–
Cc1cc(N(C)C2CCCCC2)nc(SCc2cccc(C(=O)N3CCCC3)c2)n1 [RU-0034108]	26 to 50	< 25	> 1000	–
